Measurements: PMC9246096, “Structure-activity relationship studies for inhibitors for vancomycin-resistant Enterococcus and human carbonic anhydrases” (Journal of Enzyme Inhibition and Medicinal Chemistry, 2022)
≈ marks a conversion by molar mass, not a printed value. Where “and” joins values, the source holds several entries; their conditions need not be identical. Identical values can stand only once. Like-named read-outs stand apart in the source and are kept apart here.

What was measured:
E. faecium α-CA (Efα-CA) = E. faecium α-CA (Efα-CA) (Enterococcus faecium, UniProt Q3XYE8); format: biochemical
E. faecium α-CA (Efα-CA), sequence (Q3XYE8 entry or part of it): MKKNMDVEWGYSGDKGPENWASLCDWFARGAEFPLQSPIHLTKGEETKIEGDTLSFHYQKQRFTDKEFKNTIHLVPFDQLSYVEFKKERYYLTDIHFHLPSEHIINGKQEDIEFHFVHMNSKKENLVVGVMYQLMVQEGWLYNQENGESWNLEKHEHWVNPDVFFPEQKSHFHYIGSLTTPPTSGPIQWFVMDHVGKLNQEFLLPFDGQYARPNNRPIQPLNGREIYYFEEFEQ
Procedure: (§1) Both Efα-CA and Efγ-CA were recombinantly expressed and purified as follows. A pHis2 plasmid (GenScript) containing either the Efα-CA sequence or Efγ-CA sequence was used for the expression of hexa-histidine tagged protein in a bacterial culture. […] Starter cultures were grown at 37 °C with shaking at 225 rpm overnight. One litre of autoclaved Luria-Bertani broth containing 100 µg/mL ampicillin and 1 mM ZiCl2 was inoculated with a 10-ml aliquot of the starter culture and grown at 37 °C with shaking at 225 rpm to an OD of 0.8 before being cold shocked and induced with 500 µL of IPTG (1 M). The induced cultures were grown for 16 h at 17 °C with shaking at 225 rpm. Bacterial cell pellets were spun down at 4000 g for 20 min and resuspended in 1× PBS containing 0.5 mM TCEP, 5% glycerol, pH = 7.4 to which 5 mg lysozyme was added to aid in lysis. The resuspended bacterial cells were incubated on ice for 20 min and then lysed via sonication. Lysed bacterial cells were pelleted by centrifugation at 14,000 g for 1 h to remove cellular debris, and the supernatant was loaded onto a nickel-NTA column equilibrated with 1x PBS containing 0.5 mM TCEP, 5% glycerol, pH = 7.4. Once flowthrough was collected, the protein was eluted using a 0–500 mM imidazole stepwise gradient in the same equilibration buffer, and fractions were collected. Fractions that contained the desired protein, as determined by SDS-PAGE, were combined and subjected to TEV protease for His-tag cleavage. After the addition of TEV, the protein was dialysed for 4 h against 1× PBS containing 0.5 mM TCEP, 5% glycerol, pH = 7.4. The dialysed protein solution was loaded back onto a nickel-NTA column equilibrated with 1x PBS containing 0.5 mM TCEP, 5% glycerol, pH = 7.4 for the subtraction of TEV followed by its elution with the same buffer containing 500 mM imidazole. The protein eluted prior to the imidazole was concentrated using Amicon Ultra Centrifugal Filters and purified by size-exclusion chromatography (SEC) on an S100 column using running buffer 1x PBS containing 0.5 mM TCEP, 5% glycerol, pH = 7.4. Fractions that contained the protein of interest as confirmed by SDS-PAGE were concentrated, flash frozen, and placed in −80 °C for future use.
(§2) The assay was performed according to previously published protocols. Recombinant Efα-CA and Efγ-CA was obtained as described above and hCA I and hCA II were purchased from Millipore Sigma (hCA I Catalog# C4396-5MG; hCA II Catalog #C6624-500UG). Ki values were determined from inputting the IC50 values into the Cheng–Prusoff equation[25] for Ki from catalytic inhibition constants.

E. faecium γ-CA (Efγ-CA) = E. faecium γ-CA (Efγ-CA) (Enterococcus faecium, UniProt Q3XX77); experiment: biochemical; format: biochemical
E. faecium γ-CA (Efγ-CA), sequence (Q3XX77 entry or part of it): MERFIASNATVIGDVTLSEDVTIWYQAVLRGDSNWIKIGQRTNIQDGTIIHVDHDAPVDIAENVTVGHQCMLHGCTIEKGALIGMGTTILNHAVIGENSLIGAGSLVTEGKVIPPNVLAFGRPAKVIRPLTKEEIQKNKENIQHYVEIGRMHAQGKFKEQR
Procedure: as §1, §2

human CA I (hCAI) = target: human CA I (hCAI); parameters: method as in PMID 24316122; conditions: previously reported; read-out: Ki hCA I; cited from earlier work
human CA II (hCAII) = target: human CA II (hCAII); parameters: method as in PMID 24316122; conditions: previously reported; read-out: Ki hCA II; cited from earlier work
VRE strains = conditions: full data set published by Kaur et al.; cited from earlier work
[1] = read-out: Ki Efα-CA; recombinant Efα-CA; Ki from IC50 via Cheng–Prusoff
[2] = Ki Efγ-CA, recombinant Efγ-CA, Ki from IC50 via Cheng–Prusoff
[3] = recombinant Efα-CA; Ki from IC50 via Cheng–Prusoff; read-out: Ki Efα-CA
[4] = recombinant Efγ-CA, Ki from IC50 via Cheng–Prusoff, read-out: Ki Efγ-CA

| Compound | Ki (E. faecium α-CA (Efα-CA); [1]) [nM] | Ki (E. faecium γ-CA (Efγ-CA); [2]) [nM] | Ki (human CA I (hCAI)) [nM] | Ki (human CA II (hCAII)) [nM] | Ki (E. faecium α-CA (Efα-CA); [3]) [nM] | Ki (E. faecium γ-CA (Efγ-CA); [4]) [nM] | other results |
| --- | --- | --- | --- | --- | --- | --- | --- |
| NS(=O)(=O)c1nnc(NCC2CCCCC2)s1 [Cmpd 27] | 117 | 398 | 1140 | – | – | – | – |
| CC(C)(C)C(=O)Nc1nnc(S(N)(=O)=O)s1 [Cmpd 3] | 29.8 | 441 | 167 | – | – | – | – |
| CN1CCN(CC(=O)Nc2nnc(S(N)(=O)=O)s2)CC1 [Cmpd 25] | 81.5 | 64.7 | – | – | – | – | – |
| CC(=O)Nc1ccc(S(N)(=O)=O)cc1 [Cmpd 30] | – | – | 1330 | 67.7 | – | – | Ki (E. faecium α-CA (Efα-CA); read-out: Ki Efα-CA): 180 nM; Ki (E. faecium γ-CA (Efγ-CA); read-out: Ki Efγ-CA): 529 nM |
| NS(=O)(=O)c1nnc(NC(=O)CC2CCC2)s1 [Cmpd 16] | – | – | 77.8 | 4.9 | 18.4 | 408 | – |
| NS(=O)(=O)c1nnc(NC(=O)CN2CCCCC2)s1 [Cmpd 23] | – | – | 53.4 | 20.9 | 29.5 | 111 | – |
| NS(=O)(=O)c1nnc(NC(=O)C2CCCCC2)s1 [Cmpd 11] | 49.3 | 131 | 63.3 | – | – | – | – |
| NS(=O)(=O)c1nnc(NC(=O)CN2CCOCC2)s1 [Cmpd 24] | – | 56.4 | – | – | – | – | – |
| NS(=O)(=O)c1nnc(NC(=O)CCC2CCCCC2)s1 [Cmpd 20] | – | 346 | 946 | – | – | – | MIC (VRE strains): 0.007 µg/mL (≈ 0.022 µM) |
| CC(C)(C)CC(=O)Nc1nnc(S(N)(=O)=O)s1 [Cmpd 6] | – | – | 231 | 7.3 | 69.6 | 389 | MIC (VRE strains): 0.015 µg/mL (≈ 0.0539 µM) |
| NS(=O)(=O)c1nnc(NC(=O)CC2CCCCC2)s1 [Cmpd 18] | 14.5 | 305 | 58.7 | – | – | – | – |
| NS(=O)(=O)c1nnc(NCc2ccccc2)s1 [Cmpd 28] | – | – | 1620 | – | 163 | 282 | – |
| CC1CCC(C(=O)Nc2nnc(S(N)(=O)=O)s2)CC1 (stereo not shown) [Cmpd 13] | – | – | 152 | 26 | 29.6 | 345 | – |
| CCCC(=O)Nc1nnc(S(N)(=O)=O)s1 [Cmpd 4] | 50.1 | 325 | – | – | – | – | – |
| NS(=O)(=O)c1nnc(NC(=O)C2CC2)s1 [Cmpd 8] | – | – | 157 | 24.6 | 36.2 | 193 | – |
| CC(=O)Nc1ncc(S(N)(=O)=O)s1 [Cmpd 29] | – | – | 465 | 97.2 | 375 | 1130 | fold reduction in binding affinity against Efα-CA (E. faecium α-CA (Efα-CA); compared to AZM): 6 fold and 7 fold; fold reduction in binding affinity against Efγ-CA (E. faecium γ-CA (Efγ-CA); compared to AZM): 3.5 fold |
| NS(=O)(=O)c1nnc(NC(=O)c2ccccc2)s1 [Cmpd 14] | – | 94.8 | 109 | – | – | – | – |
| CCCCCCC(=O)Nc1nnc(S(N)(=O)=O)s1 [Cmpd 7] | – | – | 328 | 22.7 | 78.8 | 632 | MIC (VRE strains): 0.015 µg/mL (≈ 0.0513 µM) |
| NS(=O)(=O)c1nnc(NC(=O)CN2CCCC2)s1 [Cmpd 22] | – | – | 64.7 | 58.1 | 38.1 | 92.8 | – |
| CC1(C(=O)Nc2nnc(S(N)(=O)=O)s2)CCCCC1 [Cmpd 12] | – | – | 117 | 47.7 | 44.5 | 240 | – |
| NS(=O)(=O)c1nnc(NC(=O)C2CCC2)s1 [Cmpd 9] | – | – | 125 | 41.5 | 27.2 | 286 | – |
| CC(C)C(=O)Nc1nnc(S(N)(=O)=O)s1 [Cmpd 2] | 23.7 | 218 | 180 | – | – | – | – |
| CC(C)CC(=O)Nc1nnc(S(N)(=O)=O)s1 [Cmpd 5] | – | – | 215 | 55.6 | 62.7 | 279 | – |
| CCC(=O)Nc1nnc(S(N)(=O)=O)s1 [Cmpd 1] | 37.5 | 250 | – | – | – | – | – |
| NS(=O)(=O)c1nnc(NC(=O)CCc2ccccc2)s1 [Cmpd 21] | – | – | 855 | – | – | – | – |
| NS(=O)(=O)c1nnc(NC(=O)CC2CCCC2)s1 [Cmpd 17] | – | – | 86.3 | 19.4 | 21.9 | 233 | fold reduced potency against Efα-CA (E. faecium α-CA (Efα-CA); compared to matched molecular paired analog 10): about 2 fold |
| NS(=O)(=O)c1nnc(NC(=O)C2CCCC2)s1 [Cmpd 10] | – | – | 76.5 | 26.2 | 9.8 | 195 | – |
| CCNc1nnc(S(N)(=O)=O)s1 [Cmpd 26] | 165 | 505 | 701 | – | – | – | – |
| NS(=O)(=O)c1nnc(NC(=O)CC2CC2)s1 [Cmpd 15] | – | – | 372 | 7.6 | 11.7 | 311 | – |
| NS(=O)(=O)c1nnc(NC(=O)CCC2CCCC2)s1 [Cmpd 19] | – | – | 190 | 10.2 | 39.3 | 245 | – |
